The results in this text go back to ChEMBL document CHEMBL3886492, “Aminopyrimidinones as interleukin receptor-associated kinase inhibitors” (2015).

Broadly, the IC50 is the concentration needed to halve the response being measured.

This experiment has as its target T1, Interleukin-1 receptor-associated kinase 4 (Homo sapiens, UniProt Q9NWZ3).
T1 sequence (Q9NWZ3 whole entry): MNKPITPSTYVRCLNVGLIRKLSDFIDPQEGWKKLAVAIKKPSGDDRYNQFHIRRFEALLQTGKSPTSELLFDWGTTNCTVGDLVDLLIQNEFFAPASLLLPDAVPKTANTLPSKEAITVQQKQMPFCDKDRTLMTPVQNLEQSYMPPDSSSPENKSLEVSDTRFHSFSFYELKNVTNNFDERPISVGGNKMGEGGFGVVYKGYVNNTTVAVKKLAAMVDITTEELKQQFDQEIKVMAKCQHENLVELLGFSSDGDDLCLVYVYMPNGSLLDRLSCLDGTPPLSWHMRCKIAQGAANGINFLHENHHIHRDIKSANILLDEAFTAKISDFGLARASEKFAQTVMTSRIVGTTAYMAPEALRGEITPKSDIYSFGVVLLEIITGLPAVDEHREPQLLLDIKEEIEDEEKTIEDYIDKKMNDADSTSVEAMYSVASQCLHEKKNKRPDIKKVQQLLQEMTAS
As to the kind of experiment: IMAP technology (Molecular Devices): A 20 ul reaction mixture contains 10 mM TriHCl, pH 7.2, 0.5 nM GST tagged IRAK4 (SignalChem), 100 nM fluorescent peptide substrate (RP7030, Molecular Devices), 100 uM ATP, 1 mM DTT, 1 mM MgCl2, and 0.01% Tween 20. The reaction is initiated by the addition of ATP. After incubation for 30 minutes at 25° C., 60 ul of Progressive IMAP Reagent (Molecular Devices) is added to stop the reaction. Change in RP7030's FP is determined by a FP reader (Analyst HT, LJL BioSystems).

Consider `O=c1[nH]c(N2CCc3ccccc3C2)nc(N[C@@H]2C[C@H](CO)[C@@H](O)[C@H]2O)c1-c1nc2ccccc2s1`, for which the IC50 turned out to be 0.0275 µM. Regarding `CC1(Nc2nc(N3CCOCC3)[nH]c(=O)c2-c2ccc3ccccc3n2)CCCNC1` (stereo unspecified), the concentration for half-maximal inhibition (IC50) stood at 0.13 µM. Under `COC(=O)N1CCC(c2nc(N[C@@H]3CCCNC3)c(-c3nc4ccccc4s3)c(=O)[nH]2)CC1` stands 0.27 µM; under `O=c1[nH]c(N2CCc3ccccc3C2)nc(N[C@@H]2CCCNC2)c1-c1nc(-c2ccc(F)cc2)cs1`, 0.057 µM. `Cc1csc(-c2c(N[C@@H]3CCCNC3)nc(N3CCOCC3)[nH]c2=O)n1`: the IC50 came to 0.554 µM. Under `CN1CCC(c2nc(N[C@@H]3CCCNC3)c(-c3nc4ccccc4s3)c(=O)[nH]2)CC1` stands 0.69 µM. With `CC1(Nc2nc(N[C@@H]3C[C@H](CO)[C@@H](O)[C@H]3O)c(-c3nc4ccccc4s3)c(=O)[nH]2)CCC1`, the IC50 came out at 1.69 µM. In the case of `Nc1ccc2c(c1)CN(c1nc(N[C@@H]3CCCNC3)c(-c3nc4ccccc4s3)c(=O)[nH]1)CC2`, the IC50 is 0.049 µM. As for `CS(=O)(=O)N1CCN(c2nc(N[C@@H]3CCCNC3)c(-c3nc4c(C5CC5)nccc4s3)c(=O)[nH]2)CC1`, the IC50 amounted to 0.0069 µM. Under `Cc1cccc(-c2c(N[C@@H]3C[C@H](CO)[C@@H](O)[C@H]3O)nc(N3CCOCC3)[nH]c2=O)n1` stands 0.214 µM.

For `O=c1[nH]c(C2CCOCC2)nc(N[C@@H]2CCCNC2)c1-c1nc2ccccc2s1`, the IC50 was found to be 0.38 µM. On to `CC(C)(C)OC(=O)N1CC2(CCN(c3nc(N[C@@H]4CCCNC4)c(-c4nc5ccccc5s4)c(=O)[nH]3)CC2)C1`, for which the IC50 came to 0.027 µM.

As for `CC(=O)N1CCC(c2nc(N[C@@H]3CCCNC3)c(-c3nc4ccccc4s3)c(=O)[nH]2)CC1`, the IC50 turned out to be 0.45 µM. The same measure for `N[C@H]1CCCC[C@H]1Nc1cccc2sc(-c3c(N[C@@H]4CCCNC4)nc(N4CCOCC4)[nH]c3=O)nc12`: 0.002 µM. `O=c1[nH]c(N2CCC3(CC2)CNC3)nc(N[C@@H]2CCCNC2)c1-c1nc2ccccc2s1`: the IC50 was 0.04 µM. Under `N[C@H]1CCCC[C@H]1Nc1cccc2sc(-c3c(N[C@@H]4CCCNC4)nc(N4CCOCC4)[nH]c3=O)nc12` (racemic) stands 0.07 µM.
